# Data as given in article PMC6389506 (Cell chemical biology, 2017).
# Legend:
# CDK12 = CDK12 (Homo sapiens, UniProt Q9NYV4); assay: CE-MS intact mass shift and MS/MS of the labeled peptide; format: cell-based
# CDK9 [1] = molecular target: T1, CDK9 (Homo sapiens, UniProt P50750); assay: KINOMEscan profiling / biochemical kinase assay
# CDK7 = CDK7 (Homo sapiens, UniProt P50613); assay: biochemical kinase inhibition
# CDK9 [2] = molecular target: T1, CDK9; assay: biochemical kinase inhibition
# CDK2 = CDK2 (Homo sapiens, UniProt P24941); assay: biochemical kinase inhibition
# T1 sequence (P50750 whole entry): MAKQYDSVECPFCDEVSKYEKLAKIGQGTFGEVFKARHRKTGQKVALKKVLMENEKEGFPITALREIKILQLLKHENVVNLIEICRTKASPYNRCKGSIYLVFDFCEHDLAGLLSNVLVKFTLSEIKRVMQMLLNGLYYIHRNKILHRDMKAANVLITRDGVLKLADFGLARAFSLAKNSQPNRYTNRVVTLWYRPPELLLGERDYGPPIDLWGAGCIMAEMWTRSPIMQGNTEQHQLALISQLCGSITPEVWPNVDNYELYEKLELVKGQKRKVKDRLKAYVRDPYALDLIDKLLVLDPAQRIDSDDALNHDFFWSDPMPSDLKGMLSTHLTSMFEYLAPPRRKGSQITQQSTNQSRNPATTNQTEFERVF
# Sequence of CDK7 (P50613 2-346): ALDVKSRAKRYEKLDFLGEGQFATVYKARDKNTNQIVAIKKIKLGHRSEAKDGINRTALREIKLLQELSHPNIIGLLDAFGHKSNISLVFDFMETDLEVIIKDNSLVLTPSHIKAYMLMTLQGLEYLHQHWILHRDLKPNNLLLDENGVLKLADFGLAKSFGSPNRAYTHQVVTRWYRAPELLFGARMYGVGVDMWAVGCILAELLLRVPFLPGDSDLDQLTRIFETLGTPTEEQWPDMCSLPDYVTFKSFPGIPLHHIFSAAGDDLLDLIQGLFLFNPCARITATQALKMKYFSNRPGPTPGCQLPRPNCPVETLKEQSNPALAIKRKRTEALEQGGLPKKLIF
# Sequence of CDK7 (P51946 whole entry partner): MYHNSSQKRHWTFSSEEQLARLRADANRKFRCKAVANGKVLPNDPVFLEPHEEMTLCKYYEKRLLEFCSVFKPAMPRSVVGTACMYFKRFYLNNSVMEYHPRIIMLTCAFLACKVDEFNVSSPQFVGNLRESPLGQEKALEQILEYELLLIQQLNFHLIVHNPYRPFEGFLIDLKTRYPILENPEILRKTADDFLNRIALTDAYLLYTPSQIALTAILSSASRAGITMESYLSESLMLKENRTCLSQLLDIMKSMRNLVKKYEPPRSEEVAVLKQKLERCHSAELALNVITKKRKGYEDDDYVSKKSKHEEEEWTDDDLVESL
# Sequence of CDK12 (Q9NYV4 whole entry): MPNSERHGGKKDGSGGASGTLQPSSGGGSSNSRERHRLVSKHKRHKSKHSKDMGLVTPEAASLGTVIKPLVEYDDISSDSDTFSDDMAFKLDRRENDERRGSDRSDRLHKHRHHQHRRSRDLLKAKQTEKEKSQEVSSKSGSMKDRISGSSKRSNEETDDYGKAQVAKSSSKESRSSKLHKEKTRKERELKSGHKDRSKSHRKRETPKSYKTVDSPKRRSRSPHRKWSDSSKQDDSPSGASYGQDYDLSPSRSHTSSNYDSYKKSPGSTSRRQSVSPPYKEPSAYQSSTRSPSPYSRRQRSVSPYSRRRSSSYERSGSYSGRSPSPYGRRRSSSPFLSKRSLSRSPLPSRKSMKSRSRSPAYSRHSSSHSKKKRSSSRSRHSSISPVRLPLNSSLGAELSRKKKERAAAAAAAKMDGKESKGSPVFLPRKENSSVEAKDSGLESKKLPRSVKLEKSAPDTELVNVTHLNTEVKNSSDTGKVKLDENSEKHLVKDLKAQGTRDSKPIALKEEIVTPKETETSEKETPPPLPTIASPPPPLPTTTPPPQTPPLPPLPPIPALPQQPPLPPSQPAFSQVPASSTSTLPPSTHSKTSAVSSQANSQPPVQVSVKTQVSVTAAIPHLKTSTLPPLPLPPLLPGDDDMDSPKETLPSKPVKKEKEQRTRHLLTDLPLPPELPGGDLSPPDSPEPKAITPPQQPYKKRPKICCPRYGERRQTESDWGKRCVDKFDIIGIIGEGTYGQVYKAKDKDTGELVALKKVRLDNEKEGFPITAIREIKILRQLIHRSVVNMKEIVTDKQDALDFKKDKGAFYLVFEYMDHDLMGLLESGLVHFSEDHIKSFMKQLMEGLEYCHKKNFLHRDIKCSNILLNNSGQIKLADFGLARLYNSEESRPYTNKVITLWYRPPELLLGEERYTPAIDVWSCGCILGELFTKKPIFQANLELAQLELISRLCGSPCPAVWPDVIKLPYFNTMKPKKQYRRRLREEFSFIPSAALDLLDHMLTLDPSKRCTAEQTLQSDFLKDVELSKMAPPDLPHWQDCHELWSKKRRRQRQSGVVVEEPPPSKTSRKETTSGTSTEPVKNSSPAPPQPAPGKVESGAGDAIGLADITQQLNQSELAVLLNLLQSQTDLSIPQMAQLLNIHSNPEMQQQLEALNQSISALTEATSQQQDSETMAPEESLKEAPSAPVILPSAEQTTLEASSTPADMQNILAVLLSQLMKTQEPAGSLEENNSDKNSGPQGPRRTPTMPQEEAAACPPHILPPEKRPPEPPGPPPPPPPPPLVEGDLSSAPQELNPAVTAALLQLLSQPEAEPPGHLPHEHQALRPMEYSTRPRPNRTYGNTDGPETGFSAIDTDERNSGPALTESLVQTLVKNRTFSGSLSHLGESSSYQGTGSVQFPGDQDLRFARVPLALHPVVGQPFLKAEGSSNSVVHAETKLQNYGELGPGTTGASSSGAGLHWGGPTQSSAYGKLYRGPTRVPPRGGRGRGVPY
# Sequence of CDK12 (O75909 whole entry partner): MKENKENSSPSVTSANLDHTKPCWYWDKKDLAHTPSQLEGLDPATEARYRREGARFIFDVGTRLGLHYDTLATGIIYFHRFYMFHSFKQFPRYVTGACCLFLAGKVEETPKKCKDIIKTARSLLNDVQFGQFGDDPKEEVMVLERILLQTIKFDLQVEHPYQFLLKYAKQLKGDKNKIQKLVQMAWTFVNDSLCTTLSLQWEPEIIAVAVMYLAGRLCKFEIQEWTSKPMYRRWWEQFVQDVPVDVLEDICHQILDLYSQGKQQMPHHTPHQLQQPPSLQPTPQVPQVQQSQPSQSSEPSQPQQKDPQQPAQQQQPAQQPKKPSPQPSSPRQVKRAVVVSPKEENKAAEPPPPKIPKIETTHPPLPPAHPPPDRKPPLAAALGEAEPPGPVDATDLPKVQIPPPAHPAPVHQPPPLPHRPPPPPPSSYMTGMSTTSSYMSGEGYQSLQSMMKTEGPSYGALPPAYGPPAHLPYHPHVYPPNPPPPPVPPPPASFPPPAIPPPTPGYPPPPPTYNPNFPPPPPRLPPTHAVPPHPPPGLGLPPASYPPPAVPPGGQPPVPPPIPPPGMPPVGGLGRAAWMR
CE-MS intact mass shift and MS/MS of the labeled peptide; bio-THZ1 competition p (CDK12) [nM],SMILES,KINOMEscan profiling / biochemical kinase assay (CDK9 [1]),biochemical kinase inhibition (CDK7),biochemical kinase inhibition (CDK9 [2]),biochemical kinase inhibition (CDK2)
< 25,"C=CC(=O)Nc1cccc(Nc2cc(N3CCCC[C@H]3CCO)nc3c(CC)cnn23)c1 [E9, (S)-N-(3-(3-Ethyl-5-(2-(2-Hydroxyethyl)piperidin-1-yl)pyrazolo[1,5-a]pyrimidin-7-ylamino)phenyl)acrylamide]",E9 still retained fairly strong biochemical activity against CDK9,–,–,–
–,"CCC(=O)Nc1cccc(Nc2cc(N3CCCC[C@H]3CCO)nc3c(CC)cnn23)c1 [E9-R, (S)-N-(3-((3-Ethyl-5-(2-(2-Hydroxyethyl)piperidin-1-yl)pyrazolo[1,5-a]pyrimidin-7-yl)amino)phenyl)propionamide]",–,"E9-R exhibited improved biochemical inhibition of CDK2, CDK7, and CDK9 compared with E9","E9-R exhibited improved biochemical inhibition of CDK2, CDK7, and CDK9 compared with E9","E9-R exhibited improved biochemical inhibition of CDK2, CDK7, and CDK9 compared with E9"
